Experiment [1] deals with Chymotrypsinogen B (Homo sapiens, UniProt P17538). Nature of the experiment: Compound was tested for inhibition of alpha-chymotrypsin serine protease to produce one-half maximal enzyme activity.
The nature of experiment [2]: Compound was tested for inhibition of carboxypeptidase Y serine protease to produce one-half maximal enzyme activity.
Experiment [3] can be described thus: Compound was tested for inhibition of elastase serine protease to produce one-half maximal enzyme activity.
Experiment [4] can be described thus: Compound was tested for inhibition of proteinase K serine protease to produce one-half maximal enzyme activity.

Sequence of Chymotrypsinogen B (P17538 34-164 limits assumed, other chains not shown): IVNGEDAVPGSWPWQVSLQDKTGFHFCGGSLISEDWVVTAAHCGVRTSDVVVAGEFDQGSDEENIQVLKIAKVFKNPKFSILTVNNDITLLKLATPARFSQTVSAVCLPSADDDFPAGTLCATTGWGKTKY
Sequence of Chymotrypsinogen B (P17538 167-263 limits assumed, other chains not shown): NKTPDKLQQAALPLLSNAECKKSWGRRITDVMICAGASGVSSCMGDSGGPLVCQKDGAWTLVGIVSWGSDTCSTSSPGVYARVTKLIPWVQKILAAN

On to `COC(=O)CN1CC(Cc2ccccc2)(NC(=O)c2ccccc2)C1=O` (centres undefined), for which the Inhibition constant in experiment [1] was 0.3 mM; in experiment [2], 0.3 mM; in experiment [3], more than 1.2 mM; in experiment [4] it was more than 1.2 mM.

For the origin of these results see ChEMBL document CHEMBL1152054, “Synthesis and evaluation of a -lactam-containing dipeptide analog as a protease inhibitor” (Bioorg Med Chem Lett, 1996).
